In PubChem BioAssay AID1963981 (Molecular Pharmacology Branch, DTP, NCI, 2024):

Tested on: 354836-022-R-J1-PDC multicell spheroid viability
Assay: Anticancer human tumor 354836-022-R-J1-PDC patient-derived head and neck squamous cell carcinoma cell line growth inhibition [PI3K]
Settings: for IC50: curve of first compound; for viability, T/C: stronger effect = lower value; active means viability on the fitted dose curve at most 10% of control; inactive means the rest
How it was run: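 Three cell types, namely tumor cells, endothelial cells and mesenchymal stem cells, formed each spheroid. Combinations with four PI3K inhibitors were screened at clinically achievable concentrations decreasing by half-log, and spheroid viability was recorded.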

[1] = second compound 0.0316 µM, first compound 0.0316 µM
[2] = second compound 0.0316 µM, first compound 0.1 µM
[3] = second compound 0.0316 µM, first compound 0.316 µM
[4] = second compound 0.0316 µM, first compound 1 µM
[5] = second compound 0.0316 µM, first compound 3.16 µM
[6] = second compound 0.0316 µM, first compound 10 µM
[7] = second compound 0.1 µM, first compound 0.0316 µM
[8] = second compound 0.1 µM, first compound 0.1 µM
[9] = second compound 0.1 µM, first compound 0.316 µM
[10] = second compound 0.1 µM, first compound 1 µM
[11] = second compound 0.1 µM, first compound 3.16 µM
[12] = second compound 0.1 µM, first compound 10 µM
[13] = second compound 0.316 µM, first compound 0.0316 µM
[14] = second compound 0.316 µM, first compound 0.1 µM
[15] = second compound 0.316 µM, first compound 0.316 µM
[16] = second compound 0.316 µM, first compound 1 µM
[17] = second compound 0.316 µM, first compound 3.16 µM
[18] = second compound 0.316 µM, first compound 10 µM
[19] = second compound 1 µM, first compound 0.0316 µM
[20] = second compound 1 µM, first compound 0.1 µM
[21] = second compound 1 µM, first compound 0.316 µM
[22] = second compound 1 µM, first compound 1 µM
[23] = second compound 1 µM, first compound 3.16 µM
[24] = second compound 1 µM, first compound 10 µM
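Further: spheroids exposed to agents for seven days before the viability read.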

CNC(=O)c1ccc(N2C(=S)N(c3ccc(C#N)c(C(F)(F)F)c3)C(=O)C2(C)C)cc1F + Cc1nc(NC(=O)N2CCCC2C(N)=O)sc1-c1ccnc(C(C)(C)C(F)(F)F)c1
< 31.6 nM: IC50 (second compound 10 µM)
inactive: viability, T/C [1] 108% | viability, T/C [2] 92.4% | viability, T/C [3] 100% | viability, T/C [4] 96% | viability, T/C [5] 123% | viability, T/C [6] 108% | viability, T/C [7] 95.5% | viability, T/C [8] 93.4% | viability, T/C [9] 111% | viability, T/C [10] 87.9% | viability, T/C [11] 109% | viability, T/C [12] 99.2% | viability, T/C [13] 86.8% | viability, T/C [14] 99.6% | viability, T/C [15] 89.1% | viability, T/C [16] 96.7% | viability, T/C [17] 98.2% | viability, T/C [18] 88% | viability, T/C [19] 93.5% | viability, T/C [20] 84.5% | viability, T/C [21] 76.3% | viability, T/C [22] 98.7% | viability, T/C [23] 87% | viability, T/C [24] 82.4% | viability, T/C (second compound 3.16 µM, first compound 0.0316 µM) 54.5% | viability, T/C (second compound 3.16 µM, first compound 0.1 µM) 71.1% | viability, T/C (second compound 3.16 µM, first compound 0.316 µM) 63.3% | viability, T/C (second compound 3.16 µM, first compound 1 µM) 71.3% | viability, T/C (second compound 3.16 µM, first compound 3.16 µM) 68% | viability, T/C (second compound 3.16 µM, first compound 10 µM) 72.1% | viability, T/C (second compound 10 µM, first compound 0.0316 µM) 35.1% | viability, T/C (second compound 10 µM, first compound 0.1 µM) 35% | viability, T/C (second compound 10 µM, first compound 0.316 µM) 35.7% | viability, T/C (second compound 10 µM, first compound 1 µM) 39.8% | viability, T/C (second compound 10 µM, first compound 3.16 µM) 48.9% | viability, T/C (second compound 10 µM, first compound 10 µM) 37.5%
> 10000 nM: IC50 (second compound 0.0316 µM) | IC50 (second compound 0.1 µM) | IC50 (second compound 0.316 µM) | IC50 (second compound 1 µM) | IC50 (second compound 3.16 µM)

Cn1ncc(Cl)c1-c1cc(C(=O)NC(CN)Cc2cccc(F)c2)sc1Cl (centres undefined) + COc1c(OCCCN2CCOCC2)ccc2c3n(c(=NC(=O)c4cnc(N)nc4)nc12)CCN3
active: viability, T/C (second compound 0.00316 µM, first compound 3.16 µM) 8.77% | viability, T/C (second compound 0.00316 µM, first compound 10 µM) 1.45% | viability, T/C (second compound 0.01 µM, first compound 3.16 µM) 8.38% | viability, T/C (second compound 0.01 µM, first compound 10 µM) 1.92% | viability, T/C [5] 8.7% | viability, T/C [6] 2.85% | viability, T/C [10] 8.6% | viability, T/C [11] 2.88% | viability, T/C [12] 0.98% | viability, T/C [14] 10.3% | viability, T/C [15] 5.2% | viability, T/C [16] 2.69% | viability, T/C [17] 3.48% | viability, T/C [18] 1.06% | viability, T/C [19] 1.56% | viability, T/C [20] 1.83% | viability, T/C [21] 1.63% | viability, T/C [22] 2.2% | viability, T/C [23] 1.8% | viability, T/C [24] 1.4%
148 nM: IC50 (second compound 0.00316 µM)
< 31.6 nM: IC50 (second compound 0.1 µM) | IC50 (second compound 0.316 µM) | IC50 (second compound 1 µM)
inactive: viability, T/C (second compound 0.00316 µM, first compound 0.0316 µM) 78% | viability, T/C (second compound 0.00316 µM, first compound 0.1 µM) 56% | viability, T/C (second compound 0.00316 µM, first compound 0.316 µM) 37.3% | viability, T/C (second compound 0.00316 µM, first compound 1 µM) 23.2% | viability, T/C (second compound 0.01 µM, first compound 0.0316 µM) 73% | viability, T/C (second compound 0.01 µM, first compound 0.1 µM) 74.2% | viability, T/C (second compound 0.01 µM, first compound 0.316 µM) 37.2% | viability, T/C (second compound 0.01 µM, first compound 1 µM) 19% | viability, T/C [1] 66.7% | viability, T/C [2] 52.8% | viability, T/C [3] 33.1% | viability, T/C [4] 16.1% | viability, T/C [7] 45.2% | viability, T/C [8] 33.6% | viability, T/C [9] 20.1% | viability, T/C [13] 14.4%
220 nM: IC50 (second compound 0.01 µM)
116 nM: IC50 (second compound 0.0316 µM)
